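Protocol summary: plate cells (96-well), add compound at 5 concentrations, incubate 48 h, interpolate endpoints linearly. The concentration for 50% growth inhibition is given as GI50. The concentration for full growth arrest is given as TGI.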
Columns and labels:
Assay in all cases: NCI anticancer screen, dose series, 48 h
[1] = tested on: KM20L2 colon
[2] = tested on: LXFL 529 NSCLC
[3] = tested on: DLD-1 colon
[4] = tested on: DU-145 prostate
[5] = tested on: HOP-18 NSCLC
[6] = tested on: DMS 273 small cell lung
[7] = tested on: MDA-N
[8] = tested on: XF 498 CNS

Row | SMILES | TGI [1] | TGI [2] | TGI [3] | GI50 [4] | TGI [4] | TGI [6] | other results
1 | CN1C(=O)C(Cl)(C(Cl)(Cl)S(=O)(=O)O)C(=O)c2ccccc21 (stereo unspecified) | 40.6 µM | > 100 µM | > 100 µM |  |  |  | 
2 | Cc1cc(N/N=C/c2nc(-c3ccc(Cl)cc3)oc2C)c2cc(Cl)ccc2n1 |  |  |  | 2.45 µM | 6.9 µM |  | 
3 | COc1ccc(C2CC(n3nnnc3-c3ccccc3)=NN2)cc1 (stereo unspecified) |  |  |  | 12.9 µM | 49.3 µM |  | 
4 | Cn1cc(CNCC2CCN(c3ncc(C(=O)NO)cn3)CC2)c2ccccc21 |  |  |  | 0.0124 µM | 4.41 µM |  | 
5 | CCOc1c(Cl)cc(CNC(C)C(O)c2ccccc2)cc1OC (stereo unspecified) |  |  |  | 37.6 µM | > 100 µM |  | 
6 | OC12CC/C(=N/OCc3ccccc3)CC1c1ccccc12 (stereo unspecified) | > 100 µM | > 100 µM | > 100 µM |  |  | > 100 µM | TGI [5]: > 100 µM
7 | COC(=O)CCCCCN=Cc1c(O)c(O)c(C(C)C)c2cc(C)c(-c3c(C)cc4c(C(C)C)c(O)c(O)c(C=NCCCCCC(=O)OC)c4c3O)c(O)c12 |  |  |  | 1.78 µM | 21.1 µM |  | 
8 | COc1cc2nc(-c3ccc(C(F)(F)F)cc3)cc(OCCCN3CCCCC3)c2cc1OC |  |  |  | 1.84 µM | 16.5 µM |  | 
9 | O=C(O)CSc1ncccc1[N+](=O)[O-] |  |  |  |  | > 100 µM |  | TGI [7]: > 100 µM
10 | Cc1nc(C(N)=S)sc1C(=O)C/C(=N/N)C(=O)Nc1cccc(Cl)c1C |  |  |  |  |  |  | TGI [7]: > 100 µM
11 | CC(=O)O[C@@H]1C2C(=O)OC(=O)C2C2CCC[C@]23O[C@H]13 (stereo partly specified) | > 100 µM | > 100 µM | > 100 µM |  |  | > 100 µM | TGI [5]: > 100 µM
12 | N#CC(NNC(=O)c1ccccc1O)c1cccc(O)c1 (stereo unspecified) | > 100 µM | > 100 µM | > 100 µM |  |  | > 100 µM | TGI [5]: > 100 µM
13 | Cc1c(Cl)cccc1NC(=O)CC1C(=O)Nc2ccccc2S1(=O)=O (stereo unspecified) | 44.9 µM | 29 µM | 30.4 µM |  |  | 21.4 µM | TGI [8]: 30 µM
14 | COc1ccc(-c2cn[nH]c2-c2cc(OC)c3c(c2)OCCO3)cc1 |  |  |  | 0.312 µM | 16.9 µM |  | 
15 | COc1ccc(/C=C2\C(=O)N(C(=O)Cc3ccccc3)N=C2C)cc1OC |  |  |  |  |  | > 100 µM | TGI [5]: > 100 µM; TGI [8]: > 100 µM
16 | C[C@]12CC[C@@H]3c4ccc(O)cc4C(O)C[C@H]3[C@@H]1CCC2=O (stereo partly specified) |  |  |  | > 100 µM | > 100 µM |  | 
17 | BrC1(Br)C2/C=C\CCCCC21 (stereo unspecified) | > 100 µM | > 100 µM |  |  |  | > 100 µM | TGI [5]: > 100 µM; TGI [8]: > 100 µM
18 | Oc1ccccc1-c1nc2c3ccccc3c3ccccc3c2[nH]1 |  |  |  | 13.6 µM | 26.5 µM |  | 
19 | c1cc(CNC2C3CCC(C3)C2c2c[nH]c3ccccc23)cc(CNC2C3CCC(C3)C2c2c[nH]c3ccccc23)c1 (stereo unspecified) |  |  |  |  | 2.3 µM |  | 
20 | CC(=O)OC1[C@H]2c3cc4c(cc3CN3CCC(=C[C@@H]1O)C23)OCO4 (stereo partly specified) | > 100 µM | > 100 µM | > 100 µM |  |  | > 100 µM | 
21 | Fc1cccc(Cl)c1/C=N\N=C1c2ccccc2-c2ccccc21 |  |  |  |  | > 100 µM |  | TGI [7]: > 100 µM
22 | COc1cc(Br)c(C=Nc2cccc3ccc(OS(=O)(=O)c4cccc([N+](=O)[O-])c4)cc23)cc1OC |  | > 100 µM | > 100 µM |  |  |  | TGI [5]: > 100 µM
23 | Cc1ccc(S(=O)(=O)N=Nc2c(O)[nH]c3c(Cl)cc(Cl)cc23)cc1 |  |  |  |  |  |  | TGI [7]: > 100 µM
24 | CCN1CSC(=S)N(CC)C1 |  |  |  |  | > 100 µM |  | TGI [7]: > 100 µM
25 | COc1ccc(CN2c3ccccc3CCc3ccccc32)cc1F |  |  |  | 0.481 µM | > 100 µM |  | 
26 | O=C1NC2(CN3CCC2CC3)C(=O)N1CN(Cc1ccccc1)c1ccccc1 (stereo unspecified) |  |  |  |  | > 100 µM |  | TGI [7]: > 100 µM
27 | CC1(C)C2CCC3(C2)CS(=O)(=O)N2OC231 (stereo unspecified) | 30.6 µM | 30.6 µM | 47.5 µM |  |  | 58.5 µM | TGI [5]: 32.1 µM
28 | C[C-](O)O.O/C(=C\[C-](O)c1ccccc1)c1ccccc1.O/C(=C\[C-](O)c1ccccc1)c1ccccc1.[Nd+3] (stereo unspecified) | 21 µM | > 100 µM | 44.2 µM |  |  | 16.1 µM | GI50 [1]: 5.76 µM; GI50 [2]: 5.79 µM; GI50 [3]: 9.17 µM; GI50 [8]: 13.8 µM; TGI [8]: 36.2 µM; GI50 [6]: 3.25 µM
29 | NC(=O)c1ccc(C2C3=C(CCCC3=O)OC3=C2C(=O)c2ccccc2C3=O)cc1 (stereo unspecified) |  |  |  | 0.465 µM | 1.59 µM |  | 

Source: PubChem BioAssay (NCI)
